Assay results as given in PubChem BioAssay AID248 (DTP/NCI, 2004).
Where “and” joins values, the source holds several entries; their conditions need not be identical. Equal values may be shown once. Inconclusive results and toxic doses are left out. Rule as the data show it: active = T/C of 150% or more; inactive = T/C below 125%.

Test system: L1210 leukemia ip in BDF1 mice, survival T/C
Test: NCI In Vivo Anticancer Drug Screen. Data for tumor model L1210 Leukemia (intraperitoneal) in B6D2F1 (BDF1) mice
Settings: endpoint: mean survival time, higher = longer survival
Outline: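 In this screen, tumor-bearing mice given compound are compared to those given vehicle, and their survival values are reported as a treated-to-control quotient.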

[1] = dose: 100.0 mg/kg/injection, schedule: Q01DX001 (ip), vehicle: carboxymethylcellulose (CMC)
[2] = dose: 200.0 mg/kg/injection, schedule: Q01DX001 (ip), vehicle: carboxymethylcellulose (CMC)
[3] = dose: 400.0 mg/kg/injection, schedule: Q01DX001 (ip), vehicle: carboxymethylcellulose (CMC)
[4] = dose: 100.0 mg/kg/injection, schedule: Q01DX009 (ip), vehicle: Klucel (hydroxypropylcellulose) (HPC)
[5] = dose: 100.0 mg/kg/injection, schedule: Q04DX003 (ip), vehicle: Klucel (hydroxypropylcellulose) (HPC)
[6] = dose: 200.0 mg/kg/injection, schedule: Q01DX009 (ip), vehicle: Klucel (hydroxypropylcellulose) (HPC)
[7] = dose: 200.0 mg/kg/injection, schedule: Q04DX003 (ip), vehicle: Klucel (hydroxypropylcellulose) (HPC)
[8] = dose: 400.0 mg/kg/injection, schedule: Q01DX009 (ip), vehicle: Klucel (hydroxypropylcellulose) (HPC)
[9] = dose: 400.0 mg/kg/injection, schedule: Q04DX003 (ip), vehicle: Klucel (hydroxypropylcellulose) (HPC)
[10] = dose: 400.0 mg/kg/injection, schedule: Q01DX001 (ip), vehicle: other
[11] = dose: 100.0 mg/kg/injection, schedule: Q04DX002 (ip), vehicle: Klucel (hydroxypropylcellulose) (HPC)
[12] = dose: 200.0 mg/kg/injection, schedule: Q04DX002 (ip), vehicle: Klucel (hydroxypropylcellulose) (HPC)
[13] = dose: 100.0 mg/kg/injection, schedule: Q01DX009 (ip), vehicle: saline with Tween-80
[14] = dose: 200.0 mg/kg/injection, schedule: Q01DX009 (ip), vehicle: saline with Tween-80
[15] = dose: 100.0 mg/kg/injection, schedule: Q01DX001 (ip), vehicle: saline
[16] = dose: 400.0 mg/kg/injection, schedule: Q04DX002 (ip), vehicle: Klucel (hydroxypropylcellulose) (HPC)
[17] = dose: 100.0 mg/kg/injection, schedule: Q04DX003 (ip), vehicle: saline with Tween-80
[18] = dose: 200.0 mg/kg/injection, schedule: Q04DX003 (ip), vehicle: saline with Tween-80
[19] = dose: 400.0 mg/kg/injection, schedule: Q04DX003 (ip), vehicle: saline with Tween-80

Measured: T/C

COc1ccccc1CN1CCCN(Cc2ccccc2OC)C1c1cc(I)cc(I)c1O
inactive: [1] 98 % of control | [2] 98 % of control | [3] 93 % of control

CCOc1ccc(NC(=O)COc2ccc(Cl)cc2)cc1
inactive: [4] 88 % of control | [5] 93 % of control | [6] 92 % of control | [7] 101 % of control | [8] 87 % of control | [9] 101 % of control

CC(=O)OC1CCC(NC(N)=O)CC1 (configuration not stated)
inactive: dose: 176.0 mg/kg/injection, schedule: Q01DX001 (ip), vehicle: other 102 % of control | dose: 264.0 mg/kg/injection, schedule: Q01DX001 (ip), vehicle: other 120 % of control | [10] 97 % of control | dose: 600.0 mg/kg/injection, schedule: Q01DX001 (ip), vehicle: other 105 % of control

NC(CS)=NCCc1nc2ccccc2[nH]1
inactive: dose: 100.0 mg/kg/injection, schedule: Q04DX002 (ip), vehicle: saline 107 % of control

c1cc[c]([Ge]([c]2ccccc2)[c]2ccccc2)cc1.c1ccc([Si](c2ccccc2)c2ccccc2)cc1
inactive: dose: 25.6 mg/kg/injection, schedule: Q04DX002 (ip), vehicle: saline with Tween-80 86 % of control | dose: 64.0 mg/kg/injection, schedule: Q04DX002 (ip), vehicle: saline with Tween-80 110 % of control | dose: 160.0 mg/kg/injection, schedule: Q04DX002 (ip), vehicle: saline with Tween-80 100 % of control | dose: 400.0 mg/kg/injection, schedule: Q04DX002 (ip), vehicle: saline with Tween-80 100 % of control

COC1OC(CI)C(OC(C)=O)C(OC(C)=O)C1OC(C)=O (configuration not stated)
inactive: dose: 50.0 mg/kg/injection, schedule: Q04DX002 (ip), vehicle: Klucel (hydroxypropylcellulose) (HPC) 94 % of control | [11] 94 % of control | [12] 97 % of control

O=C(CNC(=O)NCc1ccccc1)N/N=C/c1ccccc1O
inactive: dose: 50.0 mg/kg/injection, schedule: Q01DX009 (ip), vehicle: saline with Tween-80 89 % of control | [13] 103 % of control | [14] 97 % of control

COC(=O)C(C)C1(O)CCCCC1 (configuration not stated)
inactive: dose: 100.0 mg/kg/injection, schedule: Q01DX009 (ip), vehicle: saline 96 % of control | dose: 200.0 mg/kg/injection, schedule: Q01DX009 (ip), vehicle: saline 93 % of control | dose: 400.0 mg/kg/injection, schedule: Q01DX009 (ip), vehicle: saline 91 % of control

Nc1nc(N)c(N=Nc2c(Br)cc(S(N)(=O)=O)cc2Br)c(=O)[nH]1
inactive: [15] 100 % of control | dose: 200.0 mg/kg/injection, schedule: Q01DX001 (ip), vehicle: saline 105 % of control | dose: 400.0 mg/kg/injection, schedule: Q01DX001 (ip), vehicle: saline 102 % of control

O=c1oc2cc(O)ccc2c2ccccc12
inactive: [5] 98 % of control | [7] 96 % of control | [9] 102 % of control

CC(C)=CN1CCOCC1
inactive: dose: 25.0 mg/kg/injection, schedule: Q01DX009 (ip), vehicle: Klucel (hydroxypropylcellulose) (HPC) 94 % of control | dose: 50.0 mg/kg/injection, schedule: Q01DX009 (ip), vehicle: Klucel (hydroxypropylcellulose) (HPC) 92 % of control | [4] 97 % of control and 106 % of control | [5] 100 % of control | [7] 100 % of control | [9] 102 % of control

CCCCN(CCCC)CC(O)c1cc(-c2ccccc2)nc2c(N)cccc12 (configuration not stated)
inactive: dose: 75.0 mg/kg/injection, schedule: Q01DX001 (ip), vehicle: saline 98 % of control | dose: 150.0 mg/kg/injection, schedule: Q01DX001 (ip), vehicle: saline 100 % of control | dose: 300.0 mg/kg/injection, schedule: Q01DX001 (ip), vehicle: saline 96 % of control

O=C(O)COc1ccccc1[N+](=O)[O-]
inactive: [11] 96 % of control | [12] 100 % of control | [16] 96 % of control

c1ccc2c3c(ccc2c1)OCCCCCOc1ccc2ccccc2c1-c1c(ccc2ccccc12)OCCOCCOc1ccc2ccccc2c1-3
inactive: dose: 100.0 mg/kg/injection, schedule: Q01DX001 (ip), vehicle: saline with Tween-80 92 % of control | dose: 200.0 mg/kg/injection, schedule: Q01DX001 (ip), vehicle: saline with Tween-80 92 % of control | dose: 400.0 mg/kg/injection, schedule: Q01DX001 (ip), vehicle: saline with Tween-80 98 % of control

Cc1ccc(NC(=S)N2CCCCC2)cc1C
inactive: [4] 92 % of control | [6] 93 % of control | [8] 101 % of control

COc1c2c(cc3c1C(Cl)N(C)CC3)OCO2 (configuration not stated)
inactive: dose: 25.0 mg/kg/injection, schedule: Q01DX009 (ip), vehicle: saline 98 % of control | dose: 25.0 mg/kg/injection, schedule: Q04DX003 (ip), vehicle: saline 103 % of control | dose: 50.0 mg/kg/injection, schedule: Q01DX009 (ip), vehicle: saline 104 % of control | dose: 50.0 mg/kg/injection, schedule: Q04DX003 (ip), vehicle: saline 97 % of control | dose: 100.0 mg/kg/injection, schedule: Q04DX003 (ip), vehicle: saline 98 % of control and 102 % of control

CC(=O)/C(=C\c1ccccc1)CNC(C)(C)C
inactive: [15] 92 % of control

Cn1c(=O)c2[nH]c(-c3ccc4c(c3)OCO4)nc2n(C)c1=O
inactive: dose: 50.0 mg/kg/injection, schedule: Q01DX001 (ip), vehicle: other 95 % of control | dose: 100.0 mg/kg/injection, schedule: Q01DX001 (ip), vehicle: other 97 % of control | dose: 200.0 mg/kg/injection, schedule: Q01DX001 (ip), vehicle: other 95 % of control | [10] 86 % of control

CC(O)CN(CC(C)O)c1ccccc1 (configuration not stated)
inactive: [13] 102 % of control | [17] 102 % of control | [14] 94 % of control | [18] 103 % of control | [19] 101 % of control

c1ccc2cc3c(cc2c1)OCO3
inactive: [11] 110 % of control | [12] 107 % of control | [16] 98 % of control

CCC[CH2][Sn]1([CH2]CCC)[O]OC2([O]1)C1CC3CC(C1)CC2C3 (configuration not stated)
inactive: dose: 3.0 mg/kg/injection, schedule: Q04DX002 (ip), vehicle: Klucel (hydroxypropylcellulose) (HPC) 90 % of control | dose: 6.0 mg/kg/injection, schedule: Q04DX002 (ip), vehicle: Klucel (hydroxypropylcellulose) (HPC) 108 % of control | dose: 12.0 mg/kg/injection, schedule: Q04DX002 (ip), vehicle: Klucel (hydroxypropylcellulose) (HPC) 108 % of control | dose: 12.5 mg/kg/injection, schedule: Q04DX002 (ip), vehicle: Klucel (hydroxypropylcellulose) (HPC) 101 % of control

Cc1noc(N)c1-n1c(C)ccc1C
inactive: [13] 102 % of control | [17] 100 % of control | [14] 105 % of control | [18] 98 % of control | dose: 400.0 mg/kg/injection, schedule: Q01DX009 (ip), vehicle: saline with Tween-80 100 % of control | [19] 94 % of control

Cc1ncc(CO)c(C2NOCc3ccc(Cl)cc32)c1O (configuration not stated)
inactive: dose: 100.0 mg/kg/injection, schedule: Q04DX003 (ip), vehicle: acetone 104 % of control

CC(/C=N\N)=N\N
inactive: dose: 15.0 mg/kg/injection, schedule: Q01DX Z (ip), vehicle: saline 91 % of control | dose: 15.0 mg/kg/injection, schedule: Q01DX Z (oral), vehicle: saline 101 % of control | dose: 30.0 mg/kg/injection, schedule: Q01DX Z (ip), vehicle: saline 108 % of control | dose: 30.0 mg/kg/injection, schedule: Q01DX Z (oral), vehicle: saline 116 % of control | dose: 60.0 mg/kg/injection, schedule: Q01DX Z (ip), vehicle: saline 91 % of control

CC(CC(=O)OCC(F)(F)C(F)(F)C(F)(F)C(F)F)CC(=O)OCC(F)(F)C(F)(F)C(F)(F)C(F)F
inactive: dose: 50.0 mg/kg/injection, schedule: Q01DX001 (ip), vehicle: carboxymethylcellulose (CMC) 96 % of control | [1] 100 % of control | [2] 96 % of control | [3] 91 % of control

O=C(O)c1cc2ccc3ccccc3c2oc1=O
inactive: [1] 87 % of control | [2] 92 % of control | [3] 92 % of control
